According to PMC7235175, “Analysis of Pigment-Dispersing Factor Neuropeptides and Their Receptor in a Velvet Worm” (Frontiers in Endocrinology, 2020):
“Also recorded” adds a separate entry of the source.

System: PDF receptor Er-PDFR of E. rowelli
Assay: BRET assay: cAMP response (Epac-L sensor) of HEK293T cells transfected with Er-PDFR
Format: cell-based, Euperipatoides rowelli
Conditions: for activation of Er-PDFR (cAMP response) / potency of PDF-II relative to PDF-I as activating ligand: HEK293T, Epac-L BRET, n = 8; for activation of Er-PDFR (cAMP response): Rm-MIP7 as control (unrelated peptide); for potency of PDF-II relative to PDF-I as activating ligand: comparison of activation by the two peptides
Description: HEK293T cells were seeded on 96-well Nunc plates (Thermo Fisher Scientific, Waltham, MA, USA) at a density of 2 ×10^4 cells/well and cultured in DMEM high glucose (Sigma-Aldrich Chemie GmbH, Munich, Germany) supplemented with 10% fetal bovine serum and 5% CO2 at 37°C. After 24 h, cells were transfected using polyethyleneimine (25 kDa PEI, linear; Polysciences Europe GmbH, Hirschberg an der Bergstrasse, Germany) with GFP2-hEpac1E157-P881-Rluc8 [Epac-L; modified from ([83]–[85])] and pcDNA3.1-ErPDFR-3K10 in a 1:1 ratio (100 ng total DNA/well). Cells were washed with HBSS (Thermo Fisher Scientific) 2 days after transfection and stimulated with different concentrations of synthetic PDF peptides (10^−11 to 10^−5 M final concentration) together with the substrate coelenterazine 400A (“DeepBlueC”; BIOTREND Chemikalien GmbH, Cologne, Germany) at a final concentration of 5 μM in a total volume of 50 μL HBSS. Control experiments were conducted with cells expressing Epac-L alone, stimulation without PDF peptides, stimulation using an unrelated peptide (myoinhibitory peptide 7 from the cockroach Rhyparobia maderae), and stimulation with forskolin (50 μM final concentration; Sigma-Aldrich Chemie GmbH) + IBMX (100 μM final concentration; Sigma-Aldrich Chemie GmbH), respectively. The raw luminescence was measured immediately after stimulation at wavelengths of 410 ± 80 nm for the donor and 515 ± 30 nm for the acceptor in eight biological replicates for each tested PDF peptide concentration (n = 8) using a POLARstar Omega microplate reader (BMG Labtech, Cary, NC, USA). Their ratios [emission (410 nm)/emission (515 nm)] were box plotted as relative luminescence against the respective PDF concentration in dose response curves.

Row | Substance | activation threshold (minimum concentration required for PDFR stimulation) (HEK293T cells co-transfected with Epac-L and pcDNA3.1-ErPDFR-3K10 (1:1), peptide 10^−11 to 10^−5 M, coelenterazine 400A 5 μM in HBSS, emission 410/515 nm read immediately after stimulation, n = 8 biological replicates) | activation of Er-PDFR (cAMP response) (peptide 10^−11 to 10^−5 M) | potency of PDF-II relative to PDF-I as activating ligand | potency of PDF-II relative to PDF-I as activating ligand (listed as PDF-II)
1 | CNAELINSLLGLPKMMNDA-NH2 [Er-PDF-I, HPLC-purified synthetic pigment-dispersing factor peptide I of Euperipatoides rowelli] | 10^−6 M | activated by both PDF peptides of E. rowelli, Er-PDF-I and Er-PDF-II, in a dose-dependent manner; also recorded: activated by Er-PDF-I and Er-PDF-II in a distinct and dose-dependent manner | – | –
2 | CNAELINSLLNLPQKLQEA-NH2 [Er-PDF-II, HPLC-purified synthetic pigment-dispersing factor peptide II of Euperipatoides rowelli] | – | activated by both PDF peptides of E. rowelli, Er-PDF-I and Er-PDF-II, in a dose-dependent manner; also recorded: activated by Er-PDF-I and Er-PDF-II in a distinct and dose-dependent manner | one order of magnitude more potent than Er-PDF-I | tenfold higher potency than PDF-I
